Laboratory results published in paper PMC9014412 (Journal of medicinal chemistry, 2022).

Columns and labels:
[1] = system: H3K56ac; test: Histone H3 Lys 56 acetylation (H3K56ac) western blotting; format: cell-based, human; settings: HCT116 cells, 24 h, screen at 0.1, 1, 10 μM; relative to DMSO, CI-994 and 1 at 10 μM
Source text: Supporting Information: Biology
Representative blots of two independent biological replicates.

[2] = biological target: HDAC1 (Homo sapiens, UniProt Q13547); test: HDAC1 degradation by quantitative western blotting in HCT116 cells; settings: HCT116 cells, 24 h, 0.1, 1 and 10 μM; compared with 1 at 10 μM
Chain of HDAC1 (Q13547 whole entry): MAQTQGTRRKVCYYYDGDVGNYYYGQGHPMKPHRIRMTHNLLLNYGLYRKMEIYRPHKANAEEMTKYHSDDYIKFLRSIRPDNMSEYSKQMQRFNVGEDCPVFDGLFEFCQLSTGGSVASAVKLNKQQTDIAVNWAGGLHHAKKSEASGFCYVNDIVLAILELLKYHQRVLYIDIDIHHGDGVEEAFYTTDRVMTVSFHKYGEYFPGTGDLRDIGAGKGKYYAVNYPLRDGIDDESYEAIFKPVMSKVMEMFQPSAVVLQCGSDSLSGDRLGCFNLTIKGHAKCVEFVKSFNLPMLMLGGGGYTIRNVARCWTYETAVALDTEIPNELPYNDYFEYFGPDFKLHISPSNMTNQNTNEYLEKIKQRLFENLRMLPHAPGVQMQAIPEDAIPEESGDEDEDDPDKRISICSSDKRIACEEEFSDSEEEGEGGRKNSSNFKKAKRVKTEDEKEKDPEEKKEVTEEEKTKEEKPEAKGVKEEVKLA
Procedure: (§1) Initially, each PROTAC was tested at 0.1, 1, and 10 μM in HCT116 cells for 24 h; then, cell extracts were prepared and evaluated for HDAC1/2 and 3 degradation by quantitative western blotting.
(§2) This cell line was incubated at 37 °C with 5% CO2.
(§3) HCT116 cells were seeded into 6-well plates (4 × 10^5 cells/well for 24 h, 2 × 10^5 cells/well for 48 h) for 24 h and then treated with DMSO or compounds at the indicated concentrations in fresh medium (5 mL total). After desired treatment time, the cells were harvested and then lysed in lysis buffer (50 mM Tris-HCl, 150 mM NaCl, 0.5% NP-40, 0.5% Triton X-100) supplemented with a protease inhibitor (Sigma, P8340). The suspension was incubated on ice for 30 min and centrifuged (18,000 rcf, 15 min, 4 °C); then, the supernatant was collected, and protein concentrations were quantified via Bradford Assay using Protein Assay Dye Reagent Concentrate (BIO-RAD). […] PageRuler Plus Prestained Ladder was used for size standards. After gel electrophoresis at 140 V for 90 min, the separated proteins were transferred onto a nitrocellulose membrane at 30 V for 60 min. The membranes were probed with primary antibodies (see the Supporting Information) for 60−90 min. Blots were developed with complimentary IRDye-conjugated secondary antibodies, and the bands were visualized using an Odyssey infrared imaging system. Image processing and band intensity quantification were performed using Image Studio Lite.

[3] = biological target: HDAC2 (Homo sapiens, UniProt Q92769); test: HDAC2 degradation by quantitative western blotting in HCT116 cells; settings: HCT116 cells, 24 h, 0.1, 1 and 10 μM; compared with 1 at 10 μM
Chain of HDAC2 (Q92769 whole entry): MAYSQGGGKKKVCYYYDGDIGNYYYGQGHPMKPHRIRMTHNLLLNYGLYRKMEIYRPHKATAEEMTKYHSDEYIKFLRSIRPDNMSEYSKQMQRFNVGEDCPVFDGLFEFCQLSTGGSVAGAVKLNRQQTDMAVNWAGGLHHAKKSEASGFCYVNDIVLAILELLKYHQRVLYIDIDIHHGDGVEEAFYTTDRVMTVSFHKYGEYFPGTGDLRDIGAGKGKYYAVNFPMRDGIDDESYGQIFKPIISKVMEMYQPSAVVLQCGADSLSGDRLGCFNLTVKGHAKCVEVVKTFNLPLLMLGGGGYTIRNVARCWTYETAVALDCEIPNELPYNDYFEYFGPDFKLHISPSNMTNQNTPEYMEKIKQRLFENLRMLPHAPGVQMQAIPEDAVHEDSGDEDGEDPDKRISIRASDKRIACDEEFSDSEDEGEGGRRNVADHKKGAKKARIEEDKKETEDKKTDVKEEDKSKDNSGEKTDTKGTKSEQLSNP
Procedure: as §1, §2, §3

Compound | H3K56ac levels (in words) [1] | HDAC1 degradation in initial screen (in words) [2] | HDAC2 degradation in initial screen (in words) [3]
Cc1ncsc1-c1ccc(CNC(=O)[C@@H]2C[C@@H](O)CN2C(=O)[C@@H](NC(=O)CCCCCCCCCC(=O)Nc2ccc(C(=O)Nc3ccccc3N)cc2)C(C)(C)C)cc1 [Compound 4, N1-(4-((2-Aminophenyl)carbamoyl)phenyl)-N11-((S)-1-((2S,4R)-4-hydroxy-2-((4-(4-methylthiazol5-yl)benzyl)carbamoyl)pyrrolidin-1-yl)-3,3-dimethyl-1-oxobutan-2-yl)undecanediamide] | increased H3K56ac levels to the same degree as the 12-atom linker 1 | directly comparable to those of the 12-atom linker 1 | 
Cc1ncsc1-c1ccc(CNC(=O)[C@@H]2C[C@@H](O)CN2C(=O)[C@@H](NC(=O)CCCCCCCC(=O)Nc2ccc(C(=O)Nc3cc(-c4cccs4)ccc3N)cc2)C(C)(C)C)cc1 [Compound 18, N1-(4-((2-Amino-5-(thiophen-2-yl)phenyl)carbamoyl)phenyl)-N9-((S)-1-((2S,4R)-4-hydroxy-2-((4-(4-methylthiazol-5-yl)benzyl)-carbamoyl)pyrrolidin-1-yl)-3,3-dimethyl-1-oxobutan-2-yl)-nonanediamide] |  | did not result in enhanced degradation potency of HDAC1/2 | did not result in enhanced degradation potency of HDAC1/2
CC(=O)NC(C(=O)N1C[C@H](O)C[C@H]1C(=O)NCc1ccc(-c2scnc2C)cc1OCCCCNC(=O)CCCCC(=O)Nc1ccc(C(=O)Nc2ccccc2N)cc1)C(C)(C)C (stereo in doubt) [Compound 23, N1-(4-(2-(((2S,4R)-1-((S)-2-Acetamido-3,3-dimethylbutanoyl)-4-hydroxypyrrolidine-2-carboxamido)methyl)-5-(4-methylthiazol-5-yl)phenoxy)butyl)-N6-(4-((2-aminophenyl)carbamoyl)phenyl)-adipamide] | did not increase H3K56ac levels greater than the DMSO control | only modest degradation of HDAC1 | 
CC(=O)NC(C(=O)N1C[C@H](O)C[C@H]1C(=O)NCc1ccc(-c2scnc2C)cc1OCCCCNC(=O)CCCCCCCC(=O)Nc1ccc(C(=O)Nc2ccccc2N)cc1)C(C)(C)C (stereo in doubt) [Compound 24, N1-(4-(2-(((2S,4R)-1-((S)-2-Acetamido-3,3-dimethylbutanoyl)-4-hydroxypyrrolidine-2-carboxamido)methyl)-5-(4-methylthiazol-5-yl)-phenoxy)butyl)-N9-(4-((2-aminophenyl)carbamoyl)phenyl)-nonanediamide] | did not increase H3K56ac levels greater than the DMSO control | only modest degradation of HDAC1 | 
Cc1ncsc1-c1ccc(CNC(=O)[C@@H]2C[C@@H](O)CN2C(=O)[C@@H](NC(=O)CCCCCCCCCCC(=O)Nc2ccc(C(=O)Nc3cc(-c4cccs4)ccc3N)cc2)C(C)(C)C)cc1 [Compound 19, N1-(4-((2-Amino-5-(thiophen-2-yl)phenyl)carbamoyl)phenyl)-N12-((S)-1-((2S,4R)-4-hydroxy-2-((4-(4-methylthiazol-5-yl)benzyl)-carbamoyl)pyrrolidin-1-yl)-3,3-dimethyl-1-oxobutan-2-yl)-dodecanediamide] |  | did not result in enhanced degradation potency of HDAC1/2 | did not result in enhanced degradation potency of HDAC1/2
